Counter-ions that a name gives are not always drawn.
Molecular target: T1, MT1-MMP (Homo sapiens, UniProt P50281)
T1 construct: made in house
Assay: In vitro inhibition of MT1-MMP, fluorogenic peptide substrate
Type: biochemical
Conditions: catalytic domain of human MT1-MMP; substrate 10 μM; 37° C.
Experimental: The inhibitory activities of compounds of formula I on MT1-MMP, MMP1 (collagenase 1) and MMP2 (gelatinase A) can be determined as follows:
Stock solutions of substrate (MCA-Pro-Leu-Gly-Leu-Dpa-Ala-Arg-NH2, Knight, C. G., Willenbrock, F., Murphy, G., A novel coumarin-labelled peptide for sensitive continuous assays of the matrix metalloproteinases, FEBS lett., 296, 263-266, (1992)), are prepared in 100% DMSO at a concentration 1.0 mM. Stock solutions of inhibitors are prepared in 100% DMSO. The inhibitor is diluted into the assays from a solution in 100% DMSO, and controls substitute an equal volume of DMSO so that the final DMSO concentration from inhibitor and substrate dilutions in all assays is 6.0%. Assays are performed in assay buffer (150 mM NaCl, 10 mM CaCl2, 50 mM Tris-Cl pH7.5, 0.05% Brij-35) containing 6.0% DMSO once the substrate and inhibitor are diluted into it. The substrate concentration used in the assays is 10 μM. The test is carried out at 37° C. The fluorescence changes are monitored using an excitation wavelength of 320 nm and an emission wavelength of […]. The reaction mixture is added in duplicate to appropriate wells of a 96 well microfluor plate. The reaction mixture is preincubated with the inhibitor for 30 min, the reaction is started by the addition of MMP enzyme and the fluorescence intensity is measured for 10 min. A time point that is on a linear part of the curve is chosen to determine the activity. The inhibition results are expressed as the inhibitor concentrations that produced 50% inhibition (IC50) of the activity in the control (non-inhibited) reaction. In this test, the compounds of the formula I and their pharmacologically acceptable salts have an inhibiting concentration IC50 [μmol/litre] of 0.0001 and 0.030, usually of 0.0002 to 0.010, for MMP2 and an inhibiting concentration IC50 [μmol/litre] of 0.0005 and 0.125, usually of 0.001 to 0.05, for MT1-MMP.
Plasmid: The catalytic domain of the cDNA fragment encoding a full length of human MT1-MMP gene [from Prof. Motoharu Seiki, Institute of Medical Science, The University of Tokyo; Sato, H., Takino, T., Okada, Y., Cao, J., Shinagawa, A., Yamamoto, E. and Seiki, M. Nature (London), 370:61-65, 1994)] is amplified by polymerase chain reaction (PCR). […] The resulting PCR product of a 519-bp fragment is subcloned between the NdeI and BamHI unique sites of pET11a (Stratagene). The sequence of catalytic domain of MT1-MMP (CD-MT1-MMP) is verified by the ABI PRIS™ dye terminator cycle sequencing kit with the ABI PRISM™ 377 DNA sequencer (Perkin Elmer).
Expression and Purification: The subcloned CD-MT1-MMP is used to transfect E. coli strain BL21-[DE3] (Hanahan, D. J. Mol. Biol. 1983; 166(4):557-80) and expressed as insoluble inclusion body materials. Transfectants are grown at 37° C. in 50 ml Luria-Bertani (LB) medium in the presence of 50 µg/ml ampicillin to a cell density of OD600=0.6-1.0, and CD-MT1-MMP production is induced with 1 mM isopropyl-1-D-galactopyranoside (IPTG). After treatments with 5 mg/ml lysozyme and 10 μg/ml DNase I, the inclusion bodies are prepared from the harvested cells by using the detergent buffer containing 0.2 M NaCl, 1% w/v deoxycholic acid, and 1% v/v Nonidet P40. The solubilization is achieved by resuspending the inclusion bodies in the solubilization buffer composed of 6 M urea, 100 mM 2-mercaptoethanol, and 20 mM Tris-Cl, pH8.5. The enzyme is purified and renaturated using 10 ml of a Q-Sepharose (Amersham Pharmacia Biotech) column equilibrated with 5 mM CaCl2, 0.02% v/v NaN3, in 20 mM Tris-Cl pH7.5. After washing with three volumes of the same buffer, the bound proteins are eluted with two volumes of a linear gradient of 0.5-1.0 M NaCl. The collected fractions (1 ml each) are dialyzed for 6 h in equilibrated buffer. Superdex G200 column (1×15 cm) (Amersham Pharmacia) is equilibrated in 20 mM Tris-Cl, pH 7.5, 5 mM CaCl2, 0.02% NaN3. The desalted sample is applied to Superdex G200 column and chromatographed at 0.5 ml/min. […]

IC50	Compound
5.2 nM	COc1ccc(CN(CC(=O)NO)S(=O)(=O)c2ccc(OCCCCl)cc2)cc1 [Example 68, 2-{[4-(3-chloro-propoxy)-benzenesulfonyl]-(4-methoxy-benzyl)amino}-N-hydroxy-acetamide]
1.4 nM	C#CCOc1ccc(S(=O)(=O)N(CC(=O)NO)Cc2ccc(OC)cc2)cc1 [Example 75, [(4-methoxy-benzyl)-[4-prop-2-ynyloxy-benzenesulfonyl]-amino]-N-hydroxy-acetamide]
0.7 nM	C=CCCOc1ccc(S(=O)(=O)N(CC(=O)NO)Cc2ccc(-n3cncn3)cc2)cc1 [Example 79, 2-[(4-but-3-enyloxy-benzenesulfonyl)-(4-[1,2,4]triazol-1-yl-benzyl)-amino]-N-hydroxy-acetamide-hydrochloride salt]
1.2 nM	C=CCCOc1ccc(S(=O)(=O)N(CC(=O)NO)Cc2ccc(-n3ccnc3)cc2)cc1 [Example 80, 2-[(4-But-3-enyloxy-benzenesulfonyl)-(4-imidazol-1-yl-benzyl)-amino]-N-hydroxy-acetamide-hydrochloride]
4.6 nM	C=CCCOc1ccc(S(=O)(=O)N(CC(=O)NO)Cc2ccc(N3CCOCC3)cc2)cc1 [Example 81, 2-[(4-But-3-enyloxy-benzenesulfonyl)-(4-morpholin-4-yl-benzyl)-amino]-N-hydroxy-acetamide-hydrochloride]
0.3 nM	C=CCCOc1ccc(S(=O)(=O)N(CC(=O)NO)Cc2cccc(F)n2)cc1 [Example 83a, 2-([4-But-3-enyloxy-benzenesulfonyl]-(6-fluoro-pyridine-2-yl)methyl-amino)-N-hydroxyacetamide]
20.4 nM	C=CCCOc1ccc(S(=O)(=O)N(CC(=O)NO)Cc2ccc(N3CCCC3)cc2)cc1 [Example 84a, 2-[(4-But-3-enyloxy-benzenesulfonyl)-(4-(pyrrolidin-1-yl)-benzyl)-amino]-N-hydroxyacetamide-hydrochloride]

Compound	IC50
2-[(Cyclopropylmethoxy-benzenesulfonyl)-(4-[1,2,4]triazol-1-yl-benzyl)-amino]-N-hydroxyacetamide-hydrochloride salt [Example 82b]	0.6 nM
O=C(CN(Cc1ccc(-n2cncn2)cc1)S(=O)(=O)c1ccc(OCCC2CC2)cc1)NO [Example 82a]	1.8 nM
O=C(CN(Cc1ccc(-n2cncn2)cc1)S(=O)(=O)c1ccc(OCc2ccoc2)cc1)NO [Example 82c]	10.7 nM
